From patent US8759323B2, “Protein phosphatase inhibitor” (LSIP, LLC, priority 2008, dated 2014)
Where two headings read alike, the source gives them in different places.

Tests used:
Type in all cases: biochemical
[1] = target: T1, PPM1D protein catalytic domain (positions 1 to 420), His tag fusion (Homo sapiens, UniProt O15297); experiment: PPM1D-inhibitory activity, single concentration (Test Example 1, BIOMOL GREEN free phosphate); parameters: dose or concentration left out as unconfirmed; details: read-out: Rate of PPM1D inhibition (: %)
T1 construct: the catalytic domain (the positions 1 to 420) of PPM1D protein; His tag; made in house; host or cells: E. coli (pColdI vector)
T1 sequence (O15297 1-420): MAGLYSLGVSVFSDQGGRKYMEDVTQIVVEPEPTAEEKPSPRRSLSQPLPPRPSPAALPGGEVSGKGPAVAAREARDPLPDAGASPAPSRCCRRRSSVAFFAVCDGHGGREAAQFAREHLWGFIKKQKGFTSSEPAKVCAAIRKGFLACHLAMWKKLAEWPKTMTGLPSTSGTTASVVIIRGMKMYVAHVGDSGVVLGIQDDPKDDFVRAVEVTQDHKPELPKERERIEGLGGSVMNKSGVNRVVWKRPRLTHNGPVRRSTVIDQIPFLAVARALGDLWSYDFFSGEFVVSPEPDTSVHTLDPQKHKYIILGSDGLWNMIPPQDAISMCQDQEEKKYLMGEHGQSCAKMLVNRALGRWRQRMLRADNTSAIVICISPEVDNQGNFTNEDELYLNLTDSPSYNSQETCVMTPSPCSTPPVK
Description: The PPM1D-inhibitory activity of the compound of the present invention (1) was measured.
Into a pColdI vector (TaKaRa Bio Inc.), cDNA encoding the catalytic domain (the positions 1 to 420) of PPM1D protein (Protein ID: O15297/cDNA ID: U70385) was introduced, and the PPM1D protein was expressed in E. coli as a His tag fusion protein. The protein of interest was purified by metal affinity chromatography with BD-TALON resin (CLONTECH), and then eluted with an elution buffer (150 mM imidazole, PBS (pH 7.5), 500 mM NaCl, 10% glycerol, 0.2% ethanol, and 1 mM 2-mercaptoethanol). The PPM1D protein thus eluted was dialyzed against a dialysis buffer (50 mM Tris-HCl (pH 7.5), 0.1 mM EGTA, and 0.02% 2-mercaptoethanol) for 16 hours, and then stored at −80° C. as a 50% glycerol stock (an enzyme concentration of 1 μM).
The enzyme that was expressed and purified by the aforementioned method was used for analysis of the inhibitory effect of the compound on PPM1D. […] A purified phospho-p53 peptide was dissolved in H2O to prepare a 400 μM original substrate solution. The test compound of Example 1 (inhibitor) was dissolved in ethanol (EtOH) to a concentration of 40 mM, and then diluted with dimethyl sulfoxide (DMSO) to adjust an original inhibitor solution with a concentration of 4 mM in advance. Other inhibitors were dissolved in dimethyl sulfoxide (DMSO) to prepare original inhibitor solutions with a concentration of 4 mM. 30 μL of a mixed solution of the inhibitor and the substrate (66.7 μM phosphorylated peptide substrate, […], 1.7% DMSO (in the case of Example 1, 1.5% DMSO and 0.2% EtOH), and 13 mM Tris-HCl (pH 8.0)) was kept warm at 30° C., to which 20 μL of a mixed solution of an enzyme and a metal ion kept at 4° C. (10 nM PPM1D, 125 mM Tris-HCl (pH 7.5), 0.25 mM EGTA, 0.05% 2-mercaptoethanol, and 75 mM MgCl2) was added. The resulting mixture was incubated at 30° C. for 10 minutes, and then the inhibitory activity on PPM1D was measured. The enzyme reaction was terminated with addition of 100 μL of a BIOMOL GREEN reagent (Biomol), and 30 minutes later, the absorbance at 620 nm was measured to detect phosphoric acid freed by PPM1D. The inhibitory effect on PPM1D was analyzed by measuring, from the absorbance measured at 620 nm, the amount of free phosphoric acid reduced due to the addition of the inhibitor with respect to the amount of free phosphoric acid in the case of addition of DMSO not including the inhibitor.

PPM1D = target: T2, PPM1D (Homo sapiens, UniProt O15297); experiment: PPM1D IC50, inhibition constant (Ki) and selectivity (Test Example 2); details: for Ki: PPM1D, phospho-p53 (Ser 15) peptide analog substrate 5-40 μM; for IC50: inhibitor 0-40 μM, measured three times
T2 construct: the catalytic domain (the positions 1 to 420) of PPM1D protein; His tag; made in house; host or cells: E. coli (pColdI vector)
T2 sequence (O15297 1-420): T1 sequence (O15297 1-420)
Description: (§1) The inhibitory activity on PPM1A, PP2A, and PPM1D at each final concentration of the inhibitor (0, 0.1, 0.2, 0.4, 1, 2, 4, 10, or 40 μM) was measured three times with respect to each concentration, and the concentration of the inhibitor required for 50% inhibition of the enzyme activity (IC50) was determined.
The original inhibitor solution was diluted with a solvent (DMSO, (for the test compound of Example 1, 90% DMSO and 10% EtOH)) to prepare each concentration of an inhibitor solution.
Other conditions for measurement of the enzyme activity are the same as those in Test Example 1.
The enzyme selectivity of the inhibitor was analyzed by comparing the IC50 values of the inhibitor on PPM1D, PPM1A, and PP2A.
Also, the inhibition constant of the inhibitor (Ki) and the inhibition pattern were measured as follows.
As a substrate, a phospho-p53 (Ser 15) peptide analog (Ac-Val-Glu-Pro-Pro-Leu-Ser(P)-[…]NH2: Ser(P) indicates phosphorylated Ser) was used. 30 μL of a mixed solution of the inhibitor and the substrate (each concentration of the phosphorylated peptide substrate, each concentration of the inhibitor, 1.7% DMSO (in the case of Example 1, 1.5% DMSO and 0.2% EtOH), and 13 mM Tris-HCl (pH 8.0)) was kept warm at 30° C., to which 20 μL of a mixed solution of an enzyme and a metal ion kept at 4° C. (10 nM PPM1D, 125 mM Tris-HCl (pH 7.5), 0.25 mM EGTA, 0.05% 2-mercaptoethanol, and 75 mM MgCl2) was added. The resulting mixture was incubated at 30° C. for 10 minutes, and then the inhibitory activity on PPM1D was measured.
The activity on PPM1D was measured at each concentration of the phosphorylated peptide substrate (5, 10, 20, and 40 μM), and at each final concentration of the inhibitor (0, 0.3, 0.4, and 0.6 μM (the compound of Example 1 [Compound 1]) or 0, 0.4, and 1.2 μM (the compound of Example 5 [Compound 2]). The enzyme reaction was terminated with addition of 50 μL of a BIOMOL GREEN reagent (Biomol) to a reaction solution, and 30 minutes later, the absorbance at 620 nm was measured to detect phosphoric acid freed by PPM1D.
Based on the results thus obtained, Ki (μM) was calculated.

[2] = target: T3, full length PPM1A (382 residues) (Homo sapiens, UniProt P35813); experiment: PPM1A inhibitory activity (Test Example 2); details: 16 nM PPM1A, phospho-p38 peptide analog substrate, MnCl2
T3 construct: cDNA encoding full length PPM1A (382 residues); His tag (inferred: same pColdI vector, purified like His-PPM1D); made in house; host or cells: E. coli (pColdI vector)
T3 sequence (P35813 1-382): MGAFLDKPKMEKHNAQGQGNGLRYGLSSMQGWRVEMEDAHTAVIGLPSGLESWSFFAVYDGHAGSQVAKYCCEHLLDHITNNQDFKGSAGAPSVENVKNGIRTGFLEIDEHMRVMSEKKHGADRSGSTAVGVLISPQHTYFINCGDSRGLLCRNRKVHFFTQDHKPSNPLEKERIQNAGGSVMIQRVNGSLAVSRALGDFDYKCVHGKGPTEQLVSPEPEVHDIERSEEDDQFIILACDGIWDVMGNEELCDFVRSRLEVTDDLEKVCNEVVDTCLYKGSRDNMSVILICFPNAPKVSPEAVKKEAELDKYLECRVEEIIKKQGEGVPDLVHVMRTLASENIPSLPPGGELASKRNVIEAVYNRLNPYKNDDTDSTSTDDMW
Description: In order to analyze the enzyme selectivity of the inhibitor, the inhibitory effect on PPM1A, which belongs to the PPM1 family as PPM1D does, was analyzed and compared with the inhibitory effect on PPM1D. Into a pColdI vector, cDNA encoding full length PPM1A (382 residues) (Protein ID: P35813/cDNA ID: S87759) was introduced, and the PPM1A was expressed in E. coli and then purified similarly to PPM1D. The inhibitory activity on 16 nM purified PPM1A was measured. As a substrate of PPM1A, a phospho-p38 peptide analog (Ac-Asp-Asp-Glu-Nle-Thr(P)-Gly-Tyr(P)-Val-Ala-Thr-Arg-NH2: Thr(P), Tyr(P), and Nle indicate phosphorylated Thr, phosphorylated Tyr, and norleucine, respectively) was used.
30 μL of a mixed solution of the inhibitor and the substrate (66.7 μM phosphorylated peptide substrate, each concentration of the inhibitor, 1.7% DMSO (for the test compound of Example 1, 1.5% DMSO and 0.2% EtOH), and 13 mM Tris-HCl (pH 8.0)) was kept warm at 30° C., to which 20 μL of a mixed solution of an enzyme and a metal ion kept at 4° C. (40 nM PPM1A, 125 mM Tris-HCl (pH 7.5), 0.25 mM EGTA, 0.05% 2-mercaptoethanol, and 25 mM MnCl2) was added. The resulting mixture was incubated at 30° C. for 10 minutes, and then the inhibitory activity on PPM1A was measured. […]

PP2A = target: T4, PP2A (Homo sapiens, UniProt P67775); experiment: PP2A inhibitory activity (Test Example 2); details: with addition of 40 μM inhibitor
T4 construct: purchased Promega K.K
T4 sequence (P67775 whole entry): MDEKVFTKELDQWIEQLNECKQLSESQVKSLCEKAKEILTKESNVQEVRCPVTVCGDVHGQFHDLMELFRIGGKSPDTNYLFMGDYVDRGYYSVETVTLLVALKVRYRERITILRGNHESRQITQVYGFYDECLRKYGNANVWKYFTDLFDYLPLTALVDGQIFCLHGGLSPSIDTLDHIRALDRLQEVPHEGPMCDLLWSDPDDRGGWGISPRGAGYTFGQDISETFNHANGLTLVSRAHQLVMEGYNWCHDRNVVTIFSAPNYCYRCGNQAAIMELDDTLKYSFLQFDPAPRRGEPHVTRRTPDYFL
T4 sequence (P30153 2-589 partner limits assumed): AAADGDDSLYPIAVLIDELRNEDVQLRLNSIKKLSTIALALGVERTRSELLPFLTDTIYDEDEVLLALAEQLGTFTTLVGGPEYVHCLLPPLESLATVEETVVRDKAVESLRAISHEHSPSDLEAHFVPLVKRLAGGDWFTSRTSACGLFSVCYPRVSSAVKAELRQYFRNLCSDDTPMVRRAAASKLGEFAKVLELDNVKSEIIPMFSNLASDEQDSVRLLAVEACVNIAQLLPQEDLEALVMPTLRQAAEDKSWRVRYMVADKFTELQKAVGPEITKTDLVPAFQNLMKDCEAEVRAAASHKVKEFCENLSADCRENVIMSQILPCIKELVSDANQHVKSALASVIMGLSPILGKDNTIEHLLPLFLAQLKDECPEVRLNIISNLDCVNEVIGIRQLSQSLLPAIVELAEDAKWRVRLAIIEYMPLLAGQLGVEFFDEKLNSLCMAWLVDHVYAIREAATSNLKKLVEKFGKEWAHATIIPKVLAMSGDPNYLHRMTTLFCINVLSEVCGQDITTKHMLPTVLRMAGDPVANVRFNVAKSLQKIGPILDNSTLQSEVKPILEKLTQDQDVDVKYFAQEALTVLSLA
Description: Also, in order to analyze the enzyme selectivity of the inhibitor within the Ser/Thr phosphatase family, the inhibitory effect on PP2A (Protein ID: P67775/cDNA ID: X12649), which belongs to the PPP family, was analyzed. PP2A was purchased from Promega K.K. As a substrate of PP2A, a phospho-p38 peptide analog (Ac-Thr-Asp-Asp-Glu-Met-Thr(P)-Gly-Tyr-Val-Ala-Thr-NH2: Thr(P) indicates phosphorylated Thr) was used. 30 μL of a mixed solution of the inhibitor and the substrate (333.3 μM phosphorylated peptide substrate, each concentration of the inhibitor, 1.7% DMSO (in the case of Example 1, 1.5% DMSO and 0.2% EtOH), and 13 mM Tris-HCl (pH 8.0)) was kept warm at 30° C., to which 20 μL of a mixed solution of an enzyme and a metal ion kept at 4° C. (25 mU PP2A, 125 mM Tris-HCl (pH 7.5), 0.25 mM EGTA, 0.05% 2-mercaptoethanol, and 75 mM MgCl2) was added. The resulting mixture was incubated at 30° C. for 10 minutes, and then the inhibitory activity on PP2A was measured.
as §1, with “determined. […]” for “determined.”

[3] = phospho-p53 (Ser 15) peptide substrate, 30° C., 10 minutes, read-out: Rate of PPM1D inhibition (%)

Structure (SMILES)	inhibition [1, 3] [%]	inhibition [1] [%]	further results
CCOC(=O)/C=C/C12CC[C@](C)([C@@H]1CO)C2(C)C [Comparative Example 3, reference compound]	0		
C=C1C2(/C=C/CO)CC[C@@]1(C)C2(C)C [Comparative Example 4, reference compound]	0		
CC[Si](CC)(CC)O[C@@H]1C[C@H](C)C[C@@H]2[C@@H]1C[C@H](O[Si](C)(C)C(C)(C)C)[C@@H]1[C@](C)(CO)C[C@H](O)C[C@@]21C [Example 1]	97.1 ± 2.49		Ki (PPM1D): 0.59 ± 0.05 µM; IC50 (PPM1D): 0.43 ± 0.04 µM; IC50 [2]: 21 ± 1.7 µM; inhibition at 40 µM (PP2A): 11%
CSC(C)(CO[Si](C(C)C)(C(C)C)C(C)C)S(=O)(=O)c1ccc(C)cc1 (stereo not shown) [Example 11]		33.7 ± 4.78	
CC(C)[Si](OCCCC#CCO)(C(C)C)C(C)C [Example 10]		35.4 ± 2.18	
CCOC(=O)C=CC12CCC(C)(C1CO[Si](C(C)C)(C(C)C)C(C)C)C2(C)C (stereo not shown) [Example 5]	92.7 ± 1.4		Ki (PPM1D): 2.6 ± 0.1 µM; IC50 (PPM1D): 0.93 ± 0.04 µM; IC50 [2]: 28 ± 4.2 µM; inhibition at 40 µM (PP2A): 14%
COC(=O)[C@]1(C)CC(=O)C[C@]2(C)[C@@H]3C[C@@H](C)C[C@@H](OC(C)=O)[C@H]3CC(=O)[C@H]21 [Comparative Example 2, reference compound]	0		
C[C@H]1C[C@@H](O)[C@H]2C[C@H](O[Si](C)(C)C(C)(C)C)[C@@H]3[C@](C)(CO)C[C@H](O)C[C@@]3(C)[C@@H]2C1 [Example 4]		25.1	
